Data: US20030092760A1, “Therapeutic agent for renal failure” (Toray Industries, Inc., priority 2001, published 2003)

How the values were obtained:
[1] = tested on: renal failure rat models of which the primary disease is glomerulonephritis; experiment: Renal failure rat models of which the primary disease is glomerulonephritis, subcutaneous osmotic pump; assay type: in vivo, WKY rats; details: Table 5
Source text: Renal failure rat models of which the primary disease was glomerulonephritis were used to examine the effect of different 4,8-inter-m-phenylene prostaglandin I2 derivatives including beraprost sodium on the models. […] Two weeks after the induction, blood was collected from each rat through the tail vein to determine blood creatinine and BUN levels. […] Four types of 4,8-inter-m-phenylene prostaglandin I2 derivatives in total, including beraprost sodium, were individually administered subcutaneously to the rats from the back continuously with an osmotic pump (ALZET) for one week, beginning two weeks after induction of glomerulonephritis and continued through three weeks after the induction. The renal functions (i.e., blood creatinine and BUN levels) were determined one week after the initial administration of a drug.

[2] = tested on: glomerulonephritis model rats in renal failure stage; experiment: Glomerulonephritis model rats, renal failure stage, oral administration; details: for Increase in urinal total protein excretion (in words): renal failure stage, two weeks through four weeks after induction
Procedure: (§1) Eight-week-old male WKY rats (Charles River Japan Inc.) were administered intravenously with rabbit anti-rat glomerular basement membrane antiserum to induce glomerulonephritis. […] The frequency of the administration was twice a day for beraprost sodium and captopril and once a day for prednisolone. After the initial administration of a drug, urinary total protein excretion (which is a measure of renal functions) was determined.

[3] = tested on: ⅚ nephrectomized rat model; experiment: Effect on ⅚ nephrectomized rat model: renal functions; assay type: in vivo, Wistar rats; details: 50 mg/kg oral twice a day
Procedure: The effect of beraprost sodium on a ⅚ nephrectomized rat model, which has been widely used as a model animal for renal failure, was examined. Two-thirds of the left kidney was removed from each of 4-week-old male Wistar rats (Charles River Japan Inc.) with a razor, and all of the right kidney was then removed therefrom one week after. Three weeks after the initial surgery, blood was collected from each rat through the tail vein and serum creatinine and BUN levels were determined from the blood. At this point of time, the urine was also collected for 24 hours to determine the mass of proteins in the urine. The rats were allocated to one of the treatment groups by the stratifying continuous randomization method based on the mass of proteins in the urine and the body weight (n=8 per group). […] Three weeks after the initial surgery, beraprost sodium or captopril (SIGMA, i.e., a positive control) was orally administered to each rat twice a day everyday, beginning the day on which administration of a drug was started and continued through five weeks after the administration. The determination of the renal functions was performed both three weeks and five weeks after the initial administration of a drug. The photographic images of the renal tissue were observed only five weeks after the initial administration.

[4] = tested on: ⅚ nephrectomized rat model; experiment: ⅚ nephrectomized rat model: observation of renal tissue images (histopathological change); assay type: in vivo, Wistar rats; details: 50 μg/kg; number of animals with change in 8 animals per group; five weeks after initial administration
Procedure: The effect of beraprost sodium on a ⅚ nephrectomized rat model, which has been widely used as a model animal for renal failure, was examined. Two-thirds of the left kidney was removed from each of 4-week-old male Wistar rats (Charles River Japan Inc.) with a razor, and all of the right kidney was then removed therefrom one week after. Three weeks after the initial surgery, blood was collected from each rat through the tail vein and serum creatinine and BUN levels were determined from the blood. At this point of time, the urine was also collected for 24 hours to determine the mass of proteins in the urine. The rats were allocated to one of the treatment groups by the stratifying continuous randomization method based on the mass of proteins in the urine and the body weight (n=8 per group). There was observed little difference in the initial values of blood creatinine and BUN values among the rats. Three weeks after the initial surgery, beraprost sodium or captopril (SIGMA, i.e., a positive control) was orally administered to each rat twice a day everyday, beginning the day on which administration of a drug was started and continued through five weeks after the administration. The determination of the renal functions was performed both three weeks and five weeks after the initial administration of a drug. The photographic images of the renal tissue were observed only five weeks after the initial administration. […] Five weeks after the initial administration, more exacerbation of chronic renal failure was observed. […] The same tendency was shown five weeks after the initial administration (Table 2).

[5] = tested on: glomerulonephritis model rats in inflammatory stage; experiment: Glomerulonephritis model rats, inflammatory stage, oral administration; details: for Urinary total protein excretion: 7 days after induction (1 week after initial administration); for Increase in urinal total protein excretion (in words): day 1 through day 7 after induction
Procedure: as §1

[6] = 60 μg/kg group, 2 weeks after induction (before administration)
[7] = 60 μg/kg s.c. osmotic pump, 3 weeks after induction (1 week after the initial administration)
[8] = five weeks after the administration of a drug
[9] = three weeks after the administration of a drug

## O=C([O-])CCCc1cccc2c1OC1CC(O)C(C#CC(O)C3CCCCC3)C21.[Na+] (stereo not drawn) [Compound 1]
[1]; [6]
  BUN: 29 ± 2 mg/dL
  Blood creatinine: 0.44 ± 0.05 mg/dL
[1]; [7]
  BUN: 27 ± 2 mg/dL
  Blood creatinine: 0.41 ± 0.02 mg/dL

## C[C@H](CS)C(=O)N1CCC[C@H]1C(=O)O [Captopril, captopril, reference compound]
[2]; 50 mg/kg group, renal failure stage Exp. 2, 2 weeks after induction (before administration)
  Urinary total protein excretion: 318 ± 22 mg/24 hr
[2]; 50 mg/kg oral twice a day, renal failure stage Exp. 2, 4 weeks after induction (2 week after initial administration)
  Urinary total protein excretion: 504 ± 51 mg/24 hr
[2]; 100 mg/kg group, renal failure stage Exp. 2, 2 weeks after induction (before administration)
  Urinary total protein excretion: 325 ± 6 mg/24 hr
[2]; 100 mg/kg oral twice a day, renal failure stage Exp. 2, 4 weeks after induction (2 week after initial administration)
  Urinary total protein excretion: 517 ± 33 mg/24 hr
[2]
  Increase in urinal total protein excretion (in words): no effective prevention
[3]; [8]
  Blood urea nitrogen: 47.8 ± 5.2 mg/dL
  Urinary protein excretion: 255.5 ± 76.6 mg/24 hr/kgBW
[3]; [9]
  Blood urea nitrogen: 51.4 ± 3.7 mg/dL
  Urinary protein excretion: 136.8 ± 29.9 mg/24 hr/kgBW
[4]
  Framework: Infiltration of mononuclear cells: 7
  Renal corpuscle: Cellular filling in glomerulus: 4
  Renal corpuscle: Coagulation of glomeruli in Bowman's capsule: 2
  Renal corpuscle: Deposition of PAS + materials in Bowman's capsule: 1
  Renal corpuscle: Epidermal growth in Bowman's capsule: 2
  Renal corpuscle: Glomerular hypertrophy: 1
  Renal corpuscle: Glomerulosclerosis: 2
  Uriniferous tuble: Basophilic degeneration of tubules: 6
  Uriniferous tuble: Proliferation of proximal tubules: 8
  Uriniferous tuble: Proteinaceous urinary casts: 4
  Uriniferous tuble: Tubular dilation: 8
[5]; 50 mg/kg oral twice a day
  Urinary total protein excretion: 75 ± 14 mg/24 hr
[5]
  Increase in urinal total protein excretion (in words): effective prevention

## C[C@]12C=CC(=O)C=C1CC[C@@H]1[C@@H]2[C@@H](O)C[C@@]2(C)[C@H]1CC[C@]2(O)C(=O)CO [Prednisolone, prednisolone]
[2]; 2 mg/kg group, renal failure stage Exp. 1, 2 weeks after induction (before administration)
  Urinary total protein excretion: 368 ± 20 mg/24 hr
[2]; 2 mg/kg oral once a day, renal failure stage Exp. 1, 3 weeks after induction (1 week after initial administration)
  Urinary total protein excretion: 456 ± 78 mg/24 hr
[2]
  Increase in urinal total protein excretion (in words): no effective prevention
[5]; 2 mg/kg oral once a day
  Urinary total protein excretion: 38 ± 8 mg/24 hr
[5]
  Increase in urinal total protein excretion (in words): effective prevention

## O=C([O-])/C=C/Cc1cccc2c1OC1CC(O)C(/C=C/C(O)c3ccccc3)C21.[Na+] (stereo not drawn) [Compound 2]
[1]; [6]
  BUN: 28 ± 2 mg/dL
  Blood creatinine: 0.45 ± 0.04 mg/dL
[1]; [7]
  BUN: 31 ± 3 mg/dL
  Blood creatinine: 0.44 ± 0.05 mg/dL

## O=C([O-])CCCc1cccc2c1OC1CC(O)C(/C=C/C(O)c3ccccc3)C21.[Na+] (stereo not drawn) [Compound 3]
[1]; [6]
  BUN: 28 ± 3 mg/dL
  Blood creatinine: 0.45 ± 0.05 mg/dL
[1]; [7]
  BUN: 30 ± 3 mg/dL
  Blood creatinine: 0.39 ± 0.04 mg/dL
